In patent US11352604B2, “Method of making cardiomyocytes from human pluripotent cells” (Wisconsin Alumni Research Foundation, priority 2016, dated 2022):

Test system: hPSC-CMs
Assay: Bottom-up label-free quantitative proteomics, day 30 hPSC-CMs from pI:C-treated vs untreated progenitors
Type: cell-based, human
Protocol: Frozen CM pellets from day 30 in the H9 cTnT-GFP reporter cell line with or without pI:C treatment were washed with Ca^2+-free DPBS and centrifuged at 10,000 g for 10 min and the wash solvent was removed. 10 μl of 4 M urea, 0.5 M ammonium bicarbonate, 1 mM DTT, 10 mM L-methionine was added to the each pellet, and the pellets were vortexed and sonicated for 5 min, followed by incubation with shaking at 50° C. for 10 min. ProteaseMax™ surfactant was added to a final concentration of 0.04% and the pellets were vortexed and incubated at 37° C. for 10 min. 30 μl of water was added to the pellets, and the pellets were incubated at 80° C. for 20 min. After centrifugation at 16,000 g for 10 min, the supernatant was collected for Bradford assay to determine protein concentration. All samples were diluted to 800 ng/μl using 1 M urea and 125 mM ammonium bicarbonate, and 50 μl of the extract was reduced with 10 mM DTT for 30 min at 37° C., followed by alkylation with 25 mM Iodoacetamide for 30 min at room temperature in dark. The pH of the samples were tested to make sure the pH was between 7-8 and Trypsin Gold (Promega®) was added to a final trypsin to substrate ratio of 1:50 and incubated at 37° C. for overnight (16 hrs). Acetic acid was added to a final concentration of 5% (pH˜3) and the samples were centrifuged at 16,000 g for 30 min prior to LC-MS analysis.
Label-free quantitative proteomics analysis was performed using a high-resolution q-TOF mass spectrometer (Impact II, Bruker Daltonics). 3.6 μg of the protein digest were injected to a C18 (New Objective) trapping column for desalting at a flow rate of […] for 5 minutes. The peptides were separated on a 250 mm PicoFrit capillary column packed with 1.9 μm, 175 A Hypersil Gold aQ C18 particles (New Objective) at a flow rate of 300 nl/min by a gradient of 5-45% mobile phase B (0.1% formic acid in acetonitrile) (mobile phase A: 0.1% formic acid in water). The capillary column tip was customized to fit into the CaptiveSpray nanoESI source (Bruker Daltonics) for direct delivery of samples to the mass spectrometer. The most abundant 30 ions were selected for fragmentation by tandem MS (MS/MS) with an active (dynamic) exclusion time of 45 sec. The control group with and without pI:C treatment were analyzed with 5 and 6, respectively, biological replicates. Each sample was analyzed with 3 injection replicates. Protein identification and quantification were performed using the MaxQuant v1.5.7. Proteins were considered identified when at least 1 unique peptide was identified in at least 2 of the biological replicates. Label-free protein quantification was performed by first normalizing the intensity of the proteins (measured by both unique and razer peptides) to the median intensity of the same dataset, and the maximum and minimum of all the non-zero values (if more than 5 values are non-zero) were removed prior to averaging the datasets from the same group. […] Protein-protein interaction analysis was performed using the STRING database.

[1] = p<0.05 and >50% change, about 2,600 proteins detected

polyinosinic-polycytidylic acid [pI:C]
number of proteins significantly downregulated [1]: 100 proteins
number of proteins significantly upregulated [1]: 168 proteins
Fold change (protein ABHD10): 2.205
Fold change (protein ACSF2): 1.971
Fold change (protein AGK): 2.084
Fold change (protein AIFM1): 2.224
Fold change (protein AK4): 0.122
Fold change (protein AKAP12): 0.2108
Fold change (protein ALDH18A1): 0.259
Fold change (protein ARL6IP1): 0.2711
Fold change (protein ATP5F1): 3.556
Fold change (protein ATP6V1F): 0.284
Fold change (protein BMP1): 2.714
Fold change (protein C5orf24): 0.2927
Fold change (protein CALD1): 0.3099
Fold change (protein CAPZA1): 0.3292
Fold change (protein CBWD1): 0.3341
Fold change (protein CDC37): 0.3347
Fold change (protein CDK9): 1.954
Fold change (protein CDKN1B): 0.3393
Fold change (protein CFC1, CFC1B): 2.61
Fold change (protein CISD1): 6.047
Fold change (protein CLNS1A): 0.3492
Fold change (protein CLPX): 3.1174
Fold change (protein COL1A2): 0.3554
Fold change (protein COL2A1): 4.221
Fold change (protein COL3A1): 0.3719
Fold change (protein COL18A1): 0.3541
Fold change (protein CPS1): 0.3857
Fold change (protein CRLF3): 0.3949
Fold change (protein CYB5R3): 2.279
Fold change (protein DBT): 71.68
Fold change (protein DCXR): 1.952
Fold change (protein DKC1): 0.3962
Fold change (protein DSG2): 0.3991
Fold change (protein DYNLL1): 0.407
Fold change (protein EDC4): 0.4111
Fold change (protein EEF1B2): 0.416
Fold change (protein EIF3A): 0.4235
Fold change (protein EIF3K): 0.4335
Fold change (protein ELAC2): 0.4539
Fold change (protein EMC1): 3.674
Fold change (protein EPN1): 2.525
Fold change (protein EPS15L1): 2.414
Fold change (protein ERLIN2): 2.026
Fold change (protein EXOSC6): 0.4623
Fold change (protein FABP5): 0.4749
Fold change (protein FLNA): 0.4757
Fold change (protein FLNB): 0.4767
Fold change (protein FUBP1): 0.484
Fold change (protein H6PD): 0.4845
Fold change (protein HEATR6): 0.4857
Fold change (protein HEBP2): 0.4867
Fold change (protein HIST1H2AJ): 4.696
Fold change (protein HMGCS1): 0.5003
Fold change (protein HSDL1): 2.135
Fold change (protein IMMT): 2.059
Fold change (protein IQGAP1): 0.5083
Fold change (protein ISOC1): 0.5114
Fold change (protein ITM2B): 2.861
Fold change (protein KLC4): 0.5119
Fold change (protein KRT18, KRT35): 0.5128
Fold change (protein KRT19): 0.5211
Fold change (protein LAMA1): 2.03
Fold change (protein LGALS1): 0.5211
Fold change (protein LMCD1): 0.5226
Fold change (protein LNP): 2.183
Fold change (protein LRRC59): 0.5235
Fold change (protein MAP2K4): 2.414
Fold change (protein MEST): 0.5333
Fold change (protein MRPS22): 1.976
Fold change (protein MT-ATP8): 2.244
Fold change (protein MTCH2): 1.99
Fold change (protein MYL6): 0.534
Fold change (protein MYO9B): 2.112
Fold change (protein NDUFA4): 2.128
Fold change (protein NGLY1): 0.5359
Fold change (protein NIT2): 0.5435
Fold change (protein NNT): 1.994
Fold change (protein NSDHL): 2.081
Fold change (protein NUP85): 2.249
Fold change (protein OGFR): 0.5517
Fold change (protein ORF1): 2.257
Fold change (protein P4HB): 0.5531
Fold change (protein PCCA): 2.032
Fold change (protein PDLIM1): 0.5561
Fold change (protein PDLIM3): 0.557
Fold change (protein PHB2): 1.952
Fold change (protein RAC1): 2.128
Fold change (protein RAD54L2): 4.857
Fold change (protein RRAS): 3.82
Fold change (protein SLC25A1): 2.333
Fold change (protein SLC25A3): 2.195
Fold change (protein SLC25A12): 1.968
Fold change (protein SMG7): 3.817
Fold change (protein THBS1, THBS3, THBS2): 3.483
Fold change (protein TMEM65): 2.197
Fold change (protein UACA): 1.958
Fold change (protein UBE4A): 5.484
Fold change (protein UQCRB): 3.665
Fold change (protein USMG5): 2.085
Fold change (protein XPO7): 2.231
